The text below walks through data of ChEMBL document CHEMBL1129318, “Structure-activity relationships of boronic acid inhibitors of dipeptidyl peptidase IV. 1. Variation of the P2 position of Xaa-boroPro dipeptides” (J Med Chem, 1996).

One assay addresses Dipeptidyl peptidase 4 (Homo sapiens, UniProt P27487). Put plainly: In vitro for inhibition of Dipeptidylpeptidase IV.
In assay [1] the target is T1, Prolyl endopeptidase (Homo sapiens) (UniProt P48147).
T1 sequence (whole entry): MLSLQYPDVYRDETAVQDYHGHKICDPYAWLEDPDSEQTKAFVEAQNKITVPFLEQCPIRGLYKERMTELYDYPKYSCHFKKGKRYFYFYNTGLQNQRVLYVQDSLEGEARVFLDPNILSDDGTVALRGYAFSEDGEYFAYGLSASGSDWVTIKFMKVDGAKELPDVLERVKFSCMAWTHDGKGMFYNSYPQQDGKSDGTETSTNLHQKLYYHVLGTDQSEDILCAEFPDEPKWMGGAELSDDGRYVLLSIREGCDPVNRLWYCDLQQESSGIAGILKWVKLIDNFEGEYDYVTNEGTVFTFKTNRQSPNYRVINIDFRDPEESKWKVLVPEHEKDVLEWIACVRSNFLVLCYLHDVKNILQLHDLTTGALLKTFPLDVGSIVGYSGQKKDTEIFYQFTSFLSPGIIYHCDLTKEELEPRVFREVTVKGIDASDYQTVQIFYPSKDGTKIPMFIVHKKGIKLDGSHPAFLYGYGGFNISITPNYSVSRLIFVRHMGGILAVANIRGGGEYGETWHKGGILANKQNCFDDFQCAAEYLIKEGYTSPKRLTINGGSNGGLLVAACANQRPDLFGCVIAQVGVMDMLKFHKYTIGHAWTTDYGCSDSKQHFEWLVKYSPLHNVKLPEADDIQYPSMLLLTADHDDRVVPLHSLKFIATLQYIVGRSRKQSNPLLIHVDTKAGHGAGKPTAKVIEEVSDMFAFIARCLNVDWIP
Kind of assay: (§1) Compound was tested in vitro for inhibition of Prolyl endopeptidase. The note with it: concentration not given here.

The target of a further assay is Dipeptidyl peptidase 2 (Homo sapiens, UniProt Q9UHL4). Put plainly: Compound was tested in vitro for inhibition of Dipeptidylpeptidase II.
The target in another assay is T2, Prolyl endopeptidase (Homo sapiens, UniProt P48147).
T2 sequence (P48147 whole entry): T1 sequence (whole entry)
The assay is described as §1.

Sequence of Dipeptidyl peptidase 4 (P27487 whole entry): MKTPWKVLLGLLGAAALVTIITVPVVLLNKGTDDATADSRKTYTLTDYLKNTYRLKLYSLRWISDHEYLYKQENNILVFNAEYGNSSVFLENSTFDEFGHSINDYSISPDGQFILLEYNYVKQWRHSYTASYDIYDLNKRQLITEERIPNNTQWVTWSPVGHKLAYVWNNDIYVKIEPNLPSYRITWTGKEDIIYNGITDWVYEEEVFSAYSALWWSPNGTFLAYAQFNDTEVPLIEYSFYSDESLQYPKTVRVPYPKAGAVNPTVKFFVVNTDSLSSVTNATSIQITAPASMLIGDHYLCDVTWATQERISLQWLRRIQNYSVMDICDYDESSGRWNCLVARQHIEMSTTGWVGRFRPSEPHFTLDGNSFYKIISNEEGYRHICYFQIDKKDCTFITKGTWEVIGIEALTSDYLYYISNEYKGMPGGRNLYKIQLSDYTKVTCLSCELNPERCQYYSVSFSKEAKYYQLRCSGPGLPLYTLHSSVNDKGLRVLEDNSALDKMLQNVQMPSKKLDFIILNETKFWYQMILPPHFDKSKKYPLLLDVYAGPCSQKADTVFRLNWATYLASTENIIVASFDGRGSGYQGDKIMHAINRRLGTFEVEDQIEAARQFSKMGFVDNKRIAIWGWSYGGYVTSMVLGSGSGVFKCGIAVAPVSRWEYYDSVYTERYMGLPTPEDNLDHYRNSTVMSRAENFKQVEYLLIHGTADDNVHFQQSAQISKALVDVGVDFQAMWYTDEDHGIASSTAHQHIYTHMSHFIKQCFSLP

As a reminder, the IC50 is the concentration needed to halve the response being measured. `N[C@@H](Cc1ccc(O)cc1)C(=O)N1CCC[C@H]1B(O)O` showed a half-inhibitory concentration (IC50) against Dipeptidyl peptidase 4 of 32 nM. Still for that read-out and setting: the result for `N[C@@H](Cc1c[nH]cn1)C(=O)N1CCC[C@H]1B(O)O` reads 17000 nM. As usually defined, the inhibition is the drop in the measured response relative to a control, in per cent. A higher inhibition goes with a strong effect. `O=C([C@@H]1CCCN1)N1CCC[C@H]1B(O)O` registered an inhibition in assay [1] of 63%. The half-maximal inhibitory concentration (IC50) on Dipeptidyl peptidase 2 stood at 770 nM; at Dipeptidyl peptidase 4, 20 nM. Take `CC(C)(N)C(=O)N1CCC[C@H]1B(O)O`: the concentration for half-maximal inhibition (IC50) against Dipeptidyl peptidase 4 turned out to be 30000 nM. The same measure, in the same setting: the value for `N[C@@H](Cc1ccccc1)C(=O)N1CCC[C@H]1B(O)O` was 70 nM. Same read-out and setting: the value for `CC[C@H](C)[C@H](N)C(=O)N1CCC[C@H]1B(O)O` was 25 nM. On to `C[C@@H](O)[C@H](N)C(=O)N1CCC[C@H]1B(O)O`, for which the results for the IC50 against Dipeptidyl peptidase 2, against Prolyl endopeptidase and against Dipeptidyl peptidase 4 were 730 nM, 6000 nM and 190 nM, respectively. As for `N[C@H](C(=O)N1CCC[C@H]1B(O)O)c1ccccc1`, 63 nM corresponded to half-maximal inhibition on Dipeptidyl peptidase 4 (IC50).

In the case of `NCC(=O)N1CCC[C@H]1B(O)O`, the midpoint of inhibition on Dipeptidyl peptidase 4, the IC50, lay at 16000 nM. Still for that read-out and setting: the result for `NCCCC[C@H](N)C(=O)N1CCC[C@H]1B(O)O` reads 95 nM. Still for that read-out and setting: the result for `CC(C)C[C@H](N)C(=O)N1CCC[C@H]1B(O)O` reads 44 nM. For the compound `C[C@H](N)C(=O)N1CCC[C@H]1B(O)O`, on Dipeptidyl peptidase 2, the 50% inhibitory concentration (IC50) is 60 nM. Consider `O=C([C@@H]1CCN1)N1CCC[C@H]1B(O)O`, for which it took 250 nM to reach half-maximal inhibition on Dipeptidyl peptidase 4 (IC50).
